{
  "source": "patent US8569007B2",
  "about": "“Method for reducing the appearance of false positive bands in SDS-page analysis of proteolytic digestion of a sample” (Merck Sharp & Dohme Corp., priority 2006, dated 2013)",
  "tested_on": "thiol-protease",
  "conditions": "100 μM E-64; anti-IGF1R antibody substrate; overnight at room temperature; reducing SDS-PAGE (FIG. 5)",
  "protocol": "Gels containing 4-20% polyacryamide were used for reducing SDS-PAGE. Recipes for buffers were as follows: • 1.5M Tris pH 8.8: Dissolve 90.73 g Tris base in 400 ml DI H2O. pH to 8.8 with Hydrochloric Acid. Bring to volume of 500 ml with DI H2O, Store at 4° C. (This is one of the components used to make pH 8.8 Sample Buffer—below) • pH 8.8 Sample Buffer: Combine the following: 228 ml of DI H2O, 50 ml Glycerol, 50 ml 1.5M Tris pH 8.8, 50 ml 10% SDS solution, and 10 ml 0.05% Bromophenol Blue. Store at 4° C. • 2× Reducing Sample Buffer: Prepare 3% by volume 2-Mercaptoethanol in pH 8.8 Sample Buffer. Prepare fresh prior to use.\nThe buffers were combined with the samples in equal volumes and allowed to sit overnight at room temperature before boiling. This increases the sensitivity of the assay for protease activity. The samples were then boiled directly before submitting for SDS-PAGE.\nE-64 was dissolved in DMSO and EDTA was dissolved in sterile distilled water. Samples were allowed to incubate overnight at room temperature. Samples were then combined in equal parts with anti-IGF1R drug substance to yield a final concentration of 0.5 mg/ml antibody. Reducing buffer was added in equal parts to the samples containing antibody. Following overnight incubation, these samples were then loaded onto gels for reducing SDS-PAGE for a final load of 10-12 μg of antibody. […]",
  "data": [
    {"molecule": "CC(C)C[C@H](NC(=O)[C@H]1O[C@@H]1C(=O)O)C(=O)NCCCCN=C(N)N", "note": "(relative stereo) [E-64, trans-epoxy-succinyl-L-leucylamido-(4-guanidino)butane]", "values": [
      {"measurement": "inhibition of active thiol-protease in 1615 CHO medium supplement", "value": "inhibited"}
    ]}
  ]
}
